Results published in US11672786B2, “Methods of treating diseases associated with repeat instability” (The Hospital for Sick Children, priority 2016, dated 2023).

What was measured:
[1] = tested on: CAG expansions; conditions: by unknown processes; cited from earlier work
[2] = tested on: HT1080-(CAG)850 cells; assay: cellular distribution by confocal microscopy; type: cell-based, human; conditions: 50-μM NBD-labeled NA, 48 hr
Description: Scale bar represents 20 μm. […] The cell viability was estimated with WST-1 assays. Values represent the means of three independent measures±SD. […] Error bars indicate the SD of triplicate experiments. […] The dashed line indicates the peak CAG size. Allele lengths are grouped in bins spanning 10 repeats. More than 230 alleles were sized per group.
HT1080-(CAG)850 cells were incubated with 50-μM NBD-labeled NA for 48 hr and Cell Light Plasma Membrane-RFP, BacMam 2.0 (Life Technologies, Carlsbad, Calif.), then fixed for 15 min at RT with 4% paraformaldehyde and washed 2 times for 10 min in phosphate buffered saline (PBS). Cells were mounted with Vectashield hard-set mounting media that contains DAPI (Vector Laboratories, Burlingame, Calif.). Fluorescence images were obtained using Olympus FV1000D confocal laser scanning microscope (Olympus, Tokyo, Japan).

Structure (SMILES)	effect on CAG expansions [1]	cellular distribution [2]
CC(C)C[C@@H](/C=C/[C@H](Cc1ccccc1)C(=O)N1CCC[C@H]1C(=O)N[C@H](C(=O)N[C@@H](CCCNC(=O)OCc1ccccc1)C(=O)NC1CC(C)(C)N([O])C(C)(C)C1)C(C)C)NC(=O)OC(C)(C)C [XJB-5-131]	mildly suppress CAG expansions rather than induce contractions	
Cc1ccc2ccc(NC(=O)CCN(CCCNC(=O)CCCNC(=O)CCCCCNc3ccc([N+](=O)[O-])c4nonc34)CCC(=O)NCc3ccc4ccc(=O)[nH]c4n3)nc2n1 [NBD-labeled NA, N-(4-((3-((3-((7-methyl-1,8-naphthyridin-2-yl)amino)-3-oxopropyl)(3-oxo-3-(((7-oxo-7,8-dihydro-1,8-naphthyridin-2-yl)methyl)amino)propyl)amino)propyl)amino)-4-oxobutyl)-6-((7-nitrobenzo[c][1,2,5]oxadiazol-4-yl)amino)hexanamide]		distributed throughout the nuclei and cytoplasm
